The target of this experiment is Neuronal acetylcholine receptor subunit alpha-4 (Rattus norvegicus, UniProt P09483).

Where only a bound is given, the exact number is not on record here.

Sequence of Neuronal acetylcholine receptor subunit alpha-4 (P09483 whole entry): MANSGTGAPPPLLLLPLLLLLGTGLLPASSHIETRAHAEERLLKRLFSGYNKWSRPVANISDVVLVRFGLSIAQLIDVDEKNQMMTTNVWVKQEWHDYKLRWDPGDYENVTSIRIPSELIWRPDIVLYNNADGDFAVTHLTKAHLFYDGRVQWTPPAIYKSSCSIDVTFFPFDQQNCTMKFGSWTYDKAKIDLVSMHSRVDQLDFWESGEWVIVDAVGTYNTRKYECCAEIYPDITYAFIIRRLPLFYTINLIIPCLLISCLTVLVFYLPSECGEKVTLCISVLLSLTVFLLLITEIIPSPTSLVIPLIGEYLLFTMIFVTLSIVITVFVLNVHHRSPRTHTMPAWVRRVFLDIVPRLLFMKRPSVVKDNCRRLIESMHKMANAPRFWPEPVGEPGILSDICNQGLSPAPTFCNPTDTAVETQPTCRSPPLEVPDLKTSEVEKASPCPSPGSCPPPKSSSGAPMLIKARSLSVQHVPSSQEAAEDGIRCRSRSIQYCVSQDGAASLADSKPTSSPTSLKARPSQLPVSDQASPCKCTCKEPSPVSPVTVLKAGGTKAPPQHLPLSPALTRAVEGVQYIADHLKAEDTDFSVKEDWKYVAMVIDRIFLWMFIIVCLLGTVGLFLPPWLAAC

Consider `c1cnc2[nH]c(C3CCCNC3)cc2c1` (stereo unspecified) [CAS_24759729], for which the Ki was greater than 10 µM.

The values above are taken from BindingDB's records for doi:10.1016/j.bmcl.2007.10.101 (Solvay Pharmaceuticals, 2008).
